Measured values published in PubChem BioAssay (NCI).
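Test compounds were applied to cells in 96-well plates for 48 hours at 5 doses. Abbreviation: GI50, concentration required for 50% inhibition of growth. TGI denotes the concentration required for complete inhibition of growth.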

Tests used:
Assay in all cases: NCI-60 cell line screen, 48 h
[1] = tested on: HOP-62 NSCLC
[2] = tested on: SF-539 CNS
[3] = tested on: HT29 colon
[4] = tested on: DU-145 prostate
[5] = tested on: TK-10 renal
[6] = tested on: K-562 leukemia
[7] = tested on: 786-0 renal
[8] = tested on: A549 NSCLC
[9] = tested on: DMS 114 small cell lung
[10] = tested on: DMS 273 small cell lung
[11] = tested on: DLD-1 colon

Structure (SMILES)	TGI [1]	TGI [2]	TGI [3]	TGI [4]	TGI [5]	TGI [6]	TGI [7]	TGI [8]	TGI [9]	TGI [10]	TGI [11]	GI50 [1]	GI50 [4]	GI50 [5]	GI50 [6]	GI50 [8]	GI50 [2]	GI50 [10]
Cc1ccccc1C(=O)N/N=C/c1ccc(Sc2nccn2C)c([N+](=O)[O-])c1	> 100 µM	> 100 µM	> 100 µM	> 100 µM	> 100 µM	> 100 µM	> 100 µM	> 100 µM	–	–	–	–	–	–	–	–	–	–
CN(C)CC(CC1=C(CC(CN(C)C)N(C)C)CCC1)N(C)C (stereo unspecified)	> 100 µM	> 100 µM	> 100 µM	–	–	> 100 µM	–	> 100 µM	> 100 µM	> 100 µM	> 100 µM	–	–	–	–	–	–	–
CCOC(=O)C(NC(=O)c1ccco1)(Nc1nc2ccc(OCC)cc2s1)C(F)(F)F (stereo unspecified)	–	> 100 µM	> 100 µM	> 100 µM	> 100 µM	> 100 µM	68.4 µM	> 100 µM	–	–	–	–	–	–	–	–	–	–
CNC(=O)OCc1c(CO)nc(SC)n1C	> 100 µM	> 100 µM	> 100 µM	–	–	> 100 µM	–	> 100 µM	> 100 µM	> 100 µM	> 100 µM	–	–	–	–	–	–	–
CC1=NN(c2cccc(Cl)c2)C2(SCC(=O)N2c2nc3ccccc3s2)/C1=C\c1cccs1 (stereo unspecified)	> 100 µM	16.1 µM	46.6 µM	> 100 µM	80.6 µM	26.4 µM	41.1 µM	92.8 µM	–	–	–	–	–	–	–	–	–	–
CCN(CC(=O)O)C(=O)c1cccnc1	> 100 µM	–	> 100 µM	> 100 µM	> 100 µM	> 100 µM	> 100 µM	> 100 µM	–	–	–	–	–	–	–	–	–	–
C(=N\NC1=NCCN1)/c1ccc(-c2cn3cc(/C=N/NC4=NCCN4)ccc3n2)cc1	–	> 100 µM	> 67.7 µM	37.7 µM	56.1 µM	42.5 µM	> 66.4 µM	38.1 µM	–	–	–	–	–	–	–	–	–	–
Fc1ccc(C(OCCN2CCC3CCC(C2)N3C/C=C/c2ccco2)c2ccc(F)cc2)cc1 (stereo unspecified)	36.5 µM	28.4 µM	–	34.6 µM	21.5 µM	20.7 µM	22.2 µM	29.5 µM	–	–	–	–	–	–	–	–	–	–
CC(=O)C1=C(C)N(c2ccc(C)cc2)C2(O)C=CC(=O)C3C(=O)N(c4ccccc4)C(=O)C132 (stereo unspecified)	> 100 µM	65.2 µM	44.8 µM	74.3 µM	40.3 µM	66.3 µM	> 100 µM	> 100 µM	–	–	–	–	–	–	–	–	–	–
CCC(C)C1=C(OC(C)=O)[N+]2([O-])Oc3ccc(-c4c(OC(C)=O)c(OC(C)=O)c(-c5ccc(OC(C)=O)cc5)c(OC(C)=O)c4OC(C)=O)cc3OC2(C(C)CC)C(=O)N1OC(C)=O (stereo unspecified)	–	> 50 µM	> 50 µM	> 50 µM	> 50 µM	39.7 µM	24 µM	> 50 µM	–	–	–	–	–	–	–	–	–	–
Cc1nn(-c2ccccc2)c(C)c1/C=N/N=C1\SCC(=O)N1c1ccccc1	86.8 µM	67.2 µM	73.9 µM	> 100 µM	93.4 µM	> 100 µM	37.7 µM	99.6 µM	–	–	–	–	–	–	–	–	–	–
COc1ccc2c(c1)[nH]c1c(/C=C/c3ccccc3)nccc12	41.4 µM	32.3 µM	33.9 µM	51.8 µM	39.7 µM	> 100 µM	42.2 µM	37.2 µM	–	–	–	–	–	–	–	–	–	–
NC(=O)c1c(NC(=O)c2ccccn2)sc2c1CCC(=O)C2	> 100 µM	–	–	> 100 µM	> 100 µM	> 100 µM	–	> 100 µM	–	–	–	> 100 µM	> 100 µM	5 µM	1.54 µM	> 100 µM	–	–
COc1ccc(C(=O)/C=C/c2cccc([N+](=O)[O-])c2)c(OC)c1	> 50 µM	3.09 µM	–	> 50 µM	> 50 µM	3.08 µM	–	> 50 µM	–	–	–	1.8 µM	1.75 µM	1.59 µM	0.999 µM	2.56 µM	1.18 µM	–
O=C(O)C1C2CCC(O2)C1C(=O)Nc1cccc2cccnc12 (stereo unspecified)	> 100 µM	–	> 100 µM	> 100 µM	> 100 µM	> 100 µM	> 100 µM	> 100 µM	–	–	–	–	–	–	–	–	–	–
O=C(c1cccs1)N(C(=S)OC12CC3CC(CC(C3)C1)C2)c1ccccc1	> 100 µM	> 100 µM	> 100 µM	> 100 µM	> 100 µM	> 100 µM	> 100 µM	> 100 µM	–	–	–	–	–	–	–	–	–	–
O=c1cccccc1[O-].O=c1cccccc1[O-].[O]=[U+2]=[O]	–	43.1 µM	> 100 µM	–	57.3 µM	–	–	> 100 µM	–	58.3 µM	–	–	–	–	–	–	20.6 µM	22.6 µM
C[C@H](CCC(=O)O)[C@H]1CC[C@@]2(C)[C@@H]3C(=O)C[C@H]4C(C)(C)[C@@H](O)CC[C@]4(C)[C@H]3C(=O)C[C@]12C	> 100 µM	> 100 µM	> 100 µM	> 100 µM	> 100 µM	> 100 µM	> 100 µM	> 100 µM	–	–	–	–	–	–	–	–	–	–
Clc1cc2c(cc1Cl)CC(NCCN1CCCC1)CC2 (stereo unspecified)	30.7 µM	28 µM	18.1 µM	27.8 µM	27.6 µM	48.9 µM	26.3 µM	29.4 µM	–	–	–	–	–	–	–	–	–	–
